Experimental data published in article PMC11845761, “Intestinal human carboxylesterase 2 (CES2) expression rescues drug metabolism and most metabolic syndrome phenotypes in global Ces2 cluster knockout mice” (Acta Pharmacologica Sinica, 2024).

Tests used:
[1] = Plasma pharmacokinetics of vinorelbine and deacetylvinorelbine after i.v. vinorelbine in CES2-modified mice; conditions: i.v. vinorelbine 10 mg/kg; for AUC0-4h / AUC0-4h ratio (× 10^−3) (deacetylvinorelbine/vinorelbine) / Cmax / Tmax: plasma
Method: In order to minimize variation among individuals, mice were fasted for 3 h before drug was administered orally or intravenously. […] For the vinorelbine 4-h experiment, 6-7 male mice received vinorelbine intravenously (10 mg/kg, 5 μL/g) or orally (10 mg/kg, 10 μL/g) using a blunt-ended needle. […] Time points of termination were chosen to allow both reasonable assessment of the plasma exposure of the compound and its main metabolites, and adequate measurement of tissue concentrations. In order to minimize the generation and use of mice, and as no pronounced sex differences were expected, female mice were used for the capecitabine studies and male mice for the vinorelbine studies. Tail vein blood sample collection (~50 μL) was performed using microvettes containing dipotassium-EDTA. All blood samples were rapidly placed on ice to limit any ongoing hydrolysis. At the last time point in each experiment (2 or 4 h), mice were anesthetized with 5% isoflurane and blood was collected by cardiac puncture. Cardiac puncture blood samples (600–800 μL) were collected in Eppendorf tubes containing heparin as an anticoagulant. The mice were then sacrificed by cervical dislocation and brain, liver, kidney, lung, small intestine and testis were rapidly removed. Plasma was isolated from the blood by centrifugation at 9000 × g for 6 min at 4 °C, and the plasma fraction was collected and stored at −30 °C until analysis. Organs were homogenized with 4% (w/v) bovine serum albumin and stored at −30 °C until analysis. Relative metabolite-to-parental drug ratio after drug administration was calculated by determining metabolite tissue concentration relative to corresponding parental drug concentration at the last time point.
(§1) Concentrations of capecitabine (and its metabolites) and vinorelbine (and its metabolite) in mouse plasma samples and organ homogenates were determined using two independent validated high-performance liquid chromatography-tandem mass spectrometry assays.
Pharmacokinetic parameters were calculated by non-compartmental methods using the PK solver software. The area under the plasma concentration-time curve (AUC) was calculated using the trapezoidal rule, without extrapolating to infinity. The peak plasma concentration (Cmax) and the time of maximum plasma concentration (Tmax) were estimated from the original (individual mouse) data. One-way analysis of variance (ANOVA) was used when multiple groups were compared and the Tukey’s test post hoc correction was used to accommodate multiple testing. The two-sided unpaired Student’s t-test was used when treatments or differences between two specific groups were compared. Kruskal-Wallis rank test was used for semi-quantitative assessment for (H&E)-staining of white adipose tissue and Oil Red O-staining of liver. All statistical analyses were performed using the software GraphPad Prism 8 (GraphPad Software Inc., La Jolla, CA, USA). All the linear data were log-transformed before statistical tests were applied. Differences were considered statistically significant when P < 0.05. All data are presented as mean ± SD.

[2] = Tissue concentrations of vinorelbine and deacetylvinorelbine 4 h after oral vinorelbine in CES2-modified mice; assay type: in vivo, mouse; conditions: oral vinorelbine 10 mg/kg
Method: For capecitabine 2-h experiments, 6–7 female mice received oral capecitabine (500 mg/kg, 10 μL/g), and tail vein blood samples were collected at 0.125, 0.25, 0.5 and 1 h after drug administration. For the vinorelbine 4-h experiment, 6-7 male mice received vinorelbine intravenously (10 mg/kg, 5 μL/g) or orally (10 mg/kg, 10 μL/g) using a blunt-ended needle. Tail vein blood samples were collected at 0.125, 0.25, 0.5, 1 and 2 h after drug administration. […] At the last time point in each experiment (2 or 4 h), mice were anesthetized with 5% isoflurane and blood was collected by cardiac puncture. […] Plasma was isolated from the blood by centrifugation at 9000 × g for 6 min at 4 °C, and the plasma fraction was collected and stored at −30 °C until analysis.
as §1
Pharmacokinetic parameters were calculated by non-compartmental methods using the PK solver software. […] Differences were considered statistically significant when P < 0.05. All data are presented as mean ± SD.

[3] = design: method as in PMID 11822766; conditions: 24 patients; oral vinorelbine 80 mg/m^2; cited from earlier work

**Q.** Which results are given for `CCC1=C[C@@H]2CN(C1)Cc1c([nH]c3ccccc13)[C@@](C(=O)OC)(c1cc3c(cc1OC)N(C)[C@H]1[C@@](O)(C(=O)OC)[C@H](O)[C@]4(CC)C=CCN5CC[C@]31[C@@H]54)C2` [Deacetylvinorelbine, 4’-O-deacetylvinorelbine]?
**A.** AUC0-4h ([1]; male Ces2^–/– mice): 10.1 ± 2.3 ng·h/mL; AUC0-4h ratio (× 10^−3) (deacetylvinorelbine/vinorelbine) ([1]; male Ces2^–/– mice): 1.7 ± 0.2 × 10^−3; Cmax ([1]; male Ces2^–/– mice): 5.9 ± 1.4 ng/mL; Tmax ([1]; male Ces2^–/– mice): 7.8 ± 0 min; plasma AUC0-4h, fold decrease vs wild-type ([1]; male Ces2^–/–A mice): 55.5 fold; AUC0-4h ([1]; male Ces2^–/–A mice): 12.0 ± 3.8 ng·h/mL; AUC0-4h ratio (× 10^−3) (deacetylvinorelbine/vinorelbine) ([1]; male Ces2^–/–A mice): 2.2 ± 0.5 × 10^−3; Cmax ([1]; male Ces2^–/–A mice): 7.6 ± 2.7 ng/mL; Tmax ([1]; male Ces2^–/–A mice): 15 ± 11.4 min; plasma AUC0-4h, fold decrease vs wild-type ([1]; male Ces2^–/–V mice): 41.1 fold; AUC0-4h ([1]; male Ces2^–/–V mice): 16.2 ± 8.4 ng·h/mL; AUC0-4h ratio (× 10^−3) (deacetylvinorelbine/vinorelbine) ([1]; male Ces2^–/–V mice): 1.7 ± 0.2 × 10^−3; Cmax ([1]; male Ces2^–/–V mice): 8.2 ± 3.5 ng/mL; Tmax ([1]; male Ces2^–/–V mice): 10.2 ± 4.2 min; AUC0-4h ([1]; male wild-type mice): 666 ± 138 ng·h/mL; AUC0-4h ratio (× 10^−3) (deacetylvinorelbine/vinorelbine) ([1]; male wild-type mice): 110 ± 60 × 10^−3; Cmax ([1]; male wild-type mice): 346 ± 104 ng/mL; Tmax ([1]; male wild-type mice): 27.6 ± 45.6 min; CSI (small intestine tissue concentration) ([2]; male Ces2^–/– mice): 625 ± 219 ng/g; CSIC (small intestine contents concentration) ([2]; male Ces2^–/– mice): 1091 ± 405 ng/g; Ccolon (colon concentration) ([2]; male Ces2^–/– mice): 5.0 ± 2.1 ng/g; Cliver (liver concentration) ([2]; male Ces2^–/– mice): 82 ± 29 ng/g; Colon Ratio (x 10^-3) (deacetylvinorelbine /vinorelbine) ([2]; male Ces2^–/– mice): 8.4 ± 1.5 x 10^-3; Liver Ratio (x 10^-3) (deacetylvinorelbine /vinorelbine) ([2]; male Ces2^–/– mice): 15 ± 7.5 x 10^-3; Small intestine Ratio (x 10^-3) (deacetylvinorelbine /vinorelbine) ([2]; male Ces2^–/– mice): 34 ± 10.0 x 10^-3; Small intestine contents Ratio (x 10^-3) (deacetylvinorelbine /vinorelbine) ([2]; male Ces2^–/– mice): 6.7 ± 1.4 x 10^-3; liver deacetylvinorelbine-to-vinorelbine ratio, fold decrease vs wild-type ([2]; male Ces2^–/– mice): 333 fold; small intestine tissue deacetylvinorelbine-to-vinorelbine ratio ([2]; male Ces2^–/– mice): 0.034 ± 0.010; CSI (small intestine tissue concentration) ([2]; male Ces2^–/–A mice): 748 ± 225 ng/g; CSIC (small intestine contents concentration) ([2]; male Ces2^–/–A mice): 1120 ± 623 ng/g; Ccolon (colon concentration) ([2]; male Ces2^–/–A mice): 6.0 ± 2.6 ng/g; Cliver (liver concentration) ([2]; male Ces2^–/–A mice): 162 ± 52 ng/g; Colon Ratio (x 10^-3) (deacetylvinorelbine /vinorelbine) ([2]; male Ces2^–/–A mice): 7.8 ± 2.6 x 10^-3; Liver Ratio (x 10^-3) (deacetylvinorelbine /vinorelbine) ([2]; male Ces2^–/–A mice): 19 ± 1.7 x 10^-3; Small intestine Ratio (x 10^-3) (deacetylvinorelbine /vinorelbine) ([2]; male Ces2^–/–A mice): 39 ± 8.0 x 10^-3; Small intestine contents Ratio (x 10^-3) (deacetylvinorelbine /vinorelbine) ([2]; male Ces2^–/–A mice): 5.9 ± 1.6 x 10^-3; liver deacetylvinorelbine-to-vinorelbine ratio, fold decrease vs wild-type ([2]; male Ces2^–/–A mice): 263 fold; small intestine tissue deacetylvinorelbine-to-vinorelbine ratio ([2]; male Ces2^–/–A mice): 0.039 ± 0.008; CSI (small intestine tissue concentration) ([2]; male Ces2^–/–V mice): 808 ± 578 ng/g; CSIC (small intestine contents concentration) ([2]; male Ces2^–/–V mice): 957 ± 441 ng/g; Ccolon (colon concentration) ([2]; male Ces2^–/–V mice): 8.1 ± 4.8 ng/g; Cliver (liver concentration) ([2]; male Ces2^–/–V mice): 178 ± 110 ng/g; Colon Ratio (x 10^-3) (deacetylvinorelbine /vinorelbine) ([2]; male Ces2^–/–V mice): 13 ± 3.7 x 10^-3; Liver Ratio (x 10^-3) (deacetylvinorelbine /vinorelbine) ([2]; male Ces2^–/–V mice): 21 ± 7.8 x 10^-3; Small intestine Ratio (x 10^-3) (deacetylvinorelbine /vinorelbine) ([2]; male Ces2^–/–V mice): 49 ± 15 x 10^-3; Small intestine contents Ratio (x 10^-3) (deacetylvinorelbine /vinorelbine) ([2]; male Ces2^–/–V mice): 8.4 ± 3.4 x 10^-3; liver deacetylvinorelbine-to-vinorelbine ratio, fold decrease vs wild-type ([2]; male Ces2^–/–V mice): 238 fold; small intestine tissue deacetylvinorelbine-to-vinorelbine ratio ([2]; male Ces2^–/–V mice): 0.049 ± 0.015; CSI (small intestine tissue concentration) ([2]; male wild-type mice): 9590 ± 4337 ng/g; CSIC (small intestine contents concentration) ([2]; male wild-type mice): 15491 ± 4320 ng/g; Ccolon (colon concentration) ([2]; male wild-type mice): 369 ± 240 ng/g; Cliver (liver concentration) ([2]; male wild-type mice): 7589 ± 2725 ng/g; Colon Ratio (x 10^-3) (deacetylvinorelbine /vinorelbine) ([2]; male wild-type mice): 1000 ± 390 x 10^-3; Liver Ratio (x 10^-3) (deacetylvinorelbine /vinorelbine) ([2]; male wild-type mice): 5000 ± 1000 x 10^-3; Small intestine Ratio (x 10^-3) (deacetylvinorelbine /vinorelbine) ([2]; male wild-type mice): 880 ± 220 x 10^-3; Small intestine contents Ratio (x 10^-3) (deacetylvinorelbine /vinorelbine) ([2]; male wild-type mice): 220 ± 73 x 10^-3; liver deacetylvinorelbine-to-vinorelbine ratio ([2]; male wild-type mice): 5.0 ± 1.0; small intestine tissue deacetylvinorelbine-to-vinorelbine ratio ([2]; male wild-type mice): 0.88 ± 0.22; plasma Cmax [3]: 9.1 ± 3.3 ng/mL
